Results from publication PMC6854942, “Simultaneous Determination of Three Bioactive Constituents from Bletilla striata by UPLC-MS/MS and Application of the Technique to Pharmacokinetic Analyses” (Evidence-based Complementary and Alternative Medicine : eCAM, 2019).
“And” between values parts separate entries of the source, which are not always exact repeats. Identical values can stand only once.

Columns and labels:
[1] = Pharmacokinetic study in rats after oral administration of B. striata extract (UPLC-MS/MS of plasma); format: in vivo, Sprague-Dawley rats; conditions: for bioavailability: rats, AUC0−t oral (22.2 g/kg extract) vs i.v. (1.64 g/kg extract), dose-corrected, read-out: Bioavailability (absolute); for MRT last: read-out: MRT0–t; for MRT inf: read-out: MRT0–∞
Experimental: (§1) An ACQUITY™ UPLC system (Waters Corp., Milford, MA, USA) with a conditioned autosampler and the ACQUITY™ UPLC BEH C18 analytical column (50 mm × 2.1 mm, internal diameter, 1.7 μm; Waters Corp., Milford, MA, USA) were used, to which a 6 mm precolumn filter unit was added. Analysis was carried out with an elution gradient of (A) acetonitrile and (B) water (both containing 0.1% formic acid) at a flow rate of 0.35 mL/min as follows: 0–0.5 min (10% A), 0.5–1.0 min (10–30% A), 1.0–2.0 min (30–35% A), 2.0–3.0 min (35–38% A), 3.0–4.0 min (38–90% A), and 4.0–5.0 min (90–10% A). The column and autosampler were maintained at 45°C and 15°C, respectively. The injection volume was 2 μL.
(§2) Mass spectrometric detection was performed using a Waters ACQUITY™ TQD triple quadrupole tandem mass spectrometer (Waters Corp., Manchester, UK) with an ESI interface in the positive ionization mode. The MS conditions were as follows: capillary voltage, 3.0 kV; desolvation gas flow, 650 L/h of nitrogen; and cone gas flow, 50 L/h of nitrogen. The collision gas (Ar) flow for MS/MS was maintained at 0.16 mL/min for collision-induced dissociation (CID). The source and desolvation gas temperatures were 120°C and 350°C, respectively. The multiple reaction monitoring (MRM) mode was used for quantification. All data were acquired using Masslynx™ V 4.1 Software and processed using Quanlyna™ V4.1 (Waters Corp., Millford, MA, USA).
(§3) Ten microliters of the IS solution (puerarin, 10 μg/mL in methanol) and 50 μL of 1% formic acid were added to 100 μL of rat plasma. Proteins were precipitated by addition of 400 μL of methanol, vortexing for 1 min, sonication for 5 min, followed by centrifugation at 13225 ×g for 10 min at 4°C, collecting the supernatant in a centrifuge tube, and drying at 37°C N2. Subsequently, 300 μL of the initial mobile phase was dissolved, sonicated for 5 min, and centrifuged at 5°C and 13225 ×g for 5 min, and the supernatant was used for analysis by UPLC-MS/MS.
(§4) The twelve Sprague-Dawley rats were housed under a controlled temperature regimen (22 ± 1°C) and relative humidity of 50–70%. The animals were maintained on a 12 h light/12 h dark cycle and had free access to food and water. They were fasted for 12 h before each experiment but allowed to drink freely during this time. Before the experiment, the B. striata extracts' intravenous and oral dosing solutions were prepared in physiological saline at concentrations of 1.03 g/mL and 2.78 g/mL, respectively. The 12 rats were randomly divided into two groups with 6 rats in each group. Group 1 underwent oral administration (22.2 g/kg), and group 2 underwent intravenous administration (1.64 g/kg). Blood samples (0.3 mL) were collected from the external right jugular veins of the rats into heparinized tubes at the designated time points (0.033, 0.083, 0.167, 0.33, 0.5, 1, 1.5, 2, 10, 24, 36, and 48 h for group 1 and 0.033, 0.083, 0.167, 0.25, 0.33, 0.5, 0.75, 1, 1.6, and 2 h for group 2). The blood samples were immediately centrifuged at 3000 ×g for 5 min. The plasma was removed and frozen at −20°C until further analysis.
(§5) Data are represented as mean± standard deviation. To determine the pharmacokinetic parameters, the concentration-time data were analyzed by DAS 2.0 software (Mathematical Pharmacology Professional Committee of China, Shanghai, China). Statistical analysis was performed using the statistical software package Statistical Product and Service Solutions (SPSS 11.5, USA). The absolute bioavailability was calculated using the following equation: F (%) = [AUC0 − t (oral) × dose (i.v.)]/[AUC0 − t (i.v.) × dose (oral)]) × 100.

[2] = Pharmacokinetic study in rats after intravenous administration of B. striata extract (UPLC-MS/MS of plasma); format: in vivo, Sprague-Dawley rats; conditions: intravenous administration of B. striata extract 1.64 g/kg, rat plasma, n = 6; for MRT last / MRT inf: Sprague-Dawley; for MRT last: read-out: MRT0–t; for MRT inf: read-out: MRT0–∞
Experimental: as §1, §2, §3, §4, §5

[3] = Stability of each compound in rat plasma (QC samples); format: in vitro ADME; conditions: n = 5
Experimental: The stability of each compound in rat plasma was evaluated using mixtures containing low, medium, or high concentrations of the QC sample (n = 5 for each concentration level). The stability of each compound was tested under three conditions: room temperature for 6 h, three freeze (−20°C)-thaw (room temperature) cycles, and storage at 4°C for 12 h.

[4] = Sprague-Dawley, oral administration of B. striata extract 22.2 g/kg, rat plasma, n = 6
[5] = oral administration of B. striata extract 22.2 g/kg, rat plasma, n = 6
[6] = 3 freeze-thaw cycles (−20°C / room temperature), low QC (spiked 0.029 / 0.022 / 0.015 μg/mL)
[7] = 3 freeze-thaw cycles, high QC (spiked 36.78 / 13.75 / 23.78 μg/mL)
[8] = 3 freeze-thaw cycles, medium QC (spiked 4.09 / 2.75 / 2.64 μg/mL)
[9] = 6 h, room temperature, high QC (spiked 36.78 / 13.75 / 23.78 μg/mL)
[10] = 6 h, room temperature, low QC (spiked 0.029 / 0.022 / 0.015 μg/mL)
[11] = 6 h, room temperature, medium QC (spiked 4.09 / 2.75 / 2.64 μg/mL)
[12] = 12 h, 4°C, high QC (spiked 36.78 / 13.75 / 23.78 μg/mL)
[13] = 12 h, 4°C, low QC (spiked 0.029 / 0.022 / 0.015 μg/mL)
[14] = 12 h, 4°C, medium QC (spiked 4.09 / 2.75 / 2.64 μg/mL)

Row | bioavailability ([1]; Sprague-Dawley, rat, plasma) | Cmax [1, 4] [ng/mL] | MRT last [1, 4] [h] | MRT inf [1, 4] [h] | AUC0–t [1, 5] [h∗μg/mL] | AUC0–∞ [1, 5] [h∗μg/mL] | MRT last [2] [h] | MRT inf [2] [h] | AUC0–t [2] [h∗μg/mL] | AUC0–∞ [2] [h∗μg/mL] | Accuracy [3, 6] [%] | Calculated concentration [3, 6] [µg/mL] | Calculated concentration [3, 7] [µg/mL] | Calculated concentration [3, 8] [µg/mL] | Calculated concentration [3, 9] [µg/mL] | Accuracy [3, 10] [%] | Calculated concentration [3, 10] [µg/mL] | Calculated concentration [3, 11] [µg/mL] | Accuracy [3, 12] [%] | Calculated concentration [3, 12] [µg/mL] | SMILES | also measured
1 | 9.8% | 3060 ± 4820 | 12.4 ± 3.73 | 16 ± 5.34 | 20.56 ± 12.05 | 21.81 ± 12.04 | 0.68 ± 0.07 | 0.93 ± 0.18 | 15.47 ± 1.63 | 17.52 ± 2.66 | 100.3 | 0.022 ± 0.001 | 13.92 ± 0.57 | 2.74 ± 0.10 | 13.69 ± 0.39 | 100.2 | 0.022 ± 0.001 | 2.77 ± 0.08 | 96.1 | 13.22 ± 0.49 | CC(C)C[C@@](O)(CC(=O)O)C(=O)OCc1ccc(O[C@@H]2O[C@H](CO)[C@@H](O)[C@H](O)[C@H]2O)cc1 [Gymnoside I, gymnoside I] | T max [1, 5]: 1.44 ± 2.29 h; T max ([1]; oral administration of B. striata extract 22.2 g/kg, rat plasma, n = 6, listed as gymnoside I): 0.16 h; Accuracy [3, 13]: 95.4%; Calculated concentration [3, 13]: 0.021 ± 0.001 µg/mL; Accuracy [3, 14]: 97.5%; Calculated concentration [3, 14]: 2.68 ± 0.15 µg/mL
2 | 0.6% | 3300 ± 3600 | 5.62 ± 2.45 | 9.31 ± 2.57 | 3.10 ± 1.16 | 4.26 ± 1.93 | 0.36 ± 0.06 | 0.39 ± 0.07 | 36.71 ± 5.66 | 37.22 ± 5.99 | 100.7 | 0.015 ± 0.001 | 21.8 ± 0.94 | 2.62 ± 0.09 | 21.3 ± 0.94 | 106.7 | 0.016 ± 0.001 | 2.62 ± 0.09 | 92.3 | 21.95 ± 1.1 | CC(C)C[C@@](O)(CC(=O)OCc1ccc(O[C@@H]2O[C@H](CO)[C@@H](O)[C@H](O)[C@H]2O)cc1)C(=O)OCc1ccc(O[C@@H]2O[C@H](CO)[C@@H](O)[C@H](O)[C@H]2O)cc1 [Militarine, militarine] | T max [1, 5]: 0.16 ± 0.11 h; T max ([1]; oral administration of B. striata extract 22.2 g/kg, rat plasma, n = 6, listed as militarine): 1.44 h; Accuracy [3, 7]: 91.7%; Accuracy [3, 8]: 99.2%; Accuracy [3, 9]: 89.6%; Accuracy [3, 11]: 99.2%; Accuracy [3, 13]: 100.1%; Calculated concentration [3, 13]: 0.015 ± 0.001 µg/mL; Accuracy [3, 14]: 93.2%; Calculated concentration [3, 14]: 2.46 ± 0.28 µg/mL
3 | 87.5% and 87.4% | 23200 ± 5420 | 15.6 ± 3.63 | 19.7 ± 6.25 | 458.12 ± 150.74 | 498.36 ± 173.09 | 0.45 ± 0.08 | 0.51 ± 0.1 | 38.7 ± 4.72 | 39.62 ± 4.26 | 93.1 | 0.027 ± 0.001 | 34.17 ± 1.28 | 3.83 ± 0.08 | 34.95 ± 1.89 | 103.4 | 0.03 ± 0.001 | 3.77 ± 0.09 | 94.4 | 34.71 ± 1.95 | CC(C)C[C@@](O)(CC(=O)O)C(=O)O [α-Isobutylmalic acid] | Tmax ([1]; Sprague-Dawley, rat, plasma, po, 22.2 g/kg, oral administration of B. striata extract 22.2 g/kg, rat plasma, n = 6): 6.44 ± 2.33 h; Accuracy [3, 7]: 92.9%; Accuracy [3, 8]: 93.6%; Accuracy [3, 9]: 95.0%; Accuracy [3, 11]: 92.2%; Accuracy [3, 13]: 96.6%; Calculated concentration [3, 13]: 0.028 ± 0.002 µg/mL; Accuracy [3, 14]: 95.8%; Calculated concentration [3, 14]: 3.92 ± 0.11 µg/mL
